Assay results taken from patent publication US20030216569A1, “Method of making HIV protease inhibitors” (priority 1993, published 2003).
Counter-ions that a name gives are not always drawn. Like-named read-outs stand apart in the source and are kept apart here. Marks after values point to notes of the source that are not given here.

Legend:
[1] = test system: Viral SN123 infected CEM cells
HIV-1 protease = HIV-1 protease (Human immunodeficiency virus type 1 group M subtype B, UniProt P04585); assay: Fluorescence HIV-1 Protease Inhibitor Assay (Pandex); format: biochemical; set-up: made in house; host or cells: E. coli K12 L507/pHP10D (NRRL B-18560)
Procedure: A. Preparation of Protease and Gag Fractions
Lyophils of E. coli K12 L507/pHP10D were obtained from the Northern Regional Research Laboratory, Peoria, Ill. 61604, under the accession number NRRL B-18560 (deposited Nov. 14, 1989). The lyophils were decanted into tubes containing 10 ml LB medium (10 g Bacto-tryptone, 5 g Bacto-yeast extract, and 10 g aqueous sodium chloride per liter; the pH was adjusted to 7.5 and incubated at 32° C. overnight).
A small portion of the overnight culture was placed on LB-agar (LB medium with 15 g/L Bacto-agar) plates containing 12.5 micrograms/ml tetracycline in a manner so as to obtain a single colony isolate of E. coli K12 L507/pHP10D. The single colony obtained was inoculated into 10 ml of LB medium containing 12.5 micrograms/ml tetracycline and incubated overnight at 32° C. with vigorous shaking. The 10 ml overnight culture was inoculated into LB medium containing 12.5 micrograms/ml tetracycline and incubated at 32° C. with vigorous shaking until the culture reached mid-log phase. […]
3. Preparation of Protease Fraction
A culture of E. coli K12 L507/pHP10D was grown to mid-log phase at 32° C. in LB media containing 12.5 micrograms/ml tetracycline. The cultivation temperature was quickly elevated to 40° C. to induce gene expression, and the cells were allowed to grow for 2.5 hours at this temperature before the culture was quickly chilled on ice. The cells were centrifuged and the cell pellet was resuspended in 20 ml of 50 mmol MES buffer (pH 6.0) containing 1 mmol EDTA, 1 mmol DTT, 1 mmol PMSF and 10% glycerol (“Buffer A”). Cells were lysed by sonication using a Fischer Model 300 Dismembrator and a microtip probe. Following centrifugation at 27,000×g, the supernatant was diluted to a total volume of 60 ml with Buffer A and loaded onto a 2.0×19 cm QAE-Sepharose column (1 ml/min, 4° C.), that had been equilibrated in Buffer A. The column was washed isocratically for 180 min and then eluted with a gradient eluent of […] aqueous sodium chloride in Buffer A over 120 min. Enzymatic activity was measured by HPLC using the synthetic peptide Ser-Gln-Asn-Tyr-Pro-Ile-Val as described in Margolin et al., Biochem. Biophys. Res. Commun., 167, 554-560 (1990); the production of the p1 peptide (Ser-Gln-Asn-Tyr) was measured.
The active fractions were combined, adjusted to […] 1.2M in ammonium sulfate, and applied to a 2.0×18 cm hexyl agarose column that had been equilibrated in Buffer A containing 1.2M ammonium sulfate. The sample was loaded at a flow rate of 1 ml/min at 4° C., washed with the equilibration buffer for 240 min (1 ml/min) and then eluted using a reverse linear gradient of 1.2-0M ammonium sulfate in Buffer A for 120 min at the same flow rate. The column was then washed isocratically in Buffer A for 120 min.
The active fractions were combined, concentrated to 10 ml using an Amicon stirred cell with a YM-10 membrane and then applied to a MonoS cation exchange column (1.0×10 cm) that had been equilibrated in Buffer A. The sample was loaded at a flow rate of 1 ml/min at 25° C. After washing isocratically for 30 min, the protease was eluted using a linear gradient of 0-0.45M aqueous sodium chloride in Buffer A over 40 min. The column was washed isocratically in Buffer A containing 0.45M aqueous sodium chloride for 30 minutes.
The active fractions were combined and concentrated to 200 microliters using an Amicon stirred cell and a YM-10 membrane and then the protease was applied to a Superose 6 size exclusion column equilibrated in Buffer A containing 0.1M aqueous sodium chloride.

[2] = value as run, 35B value of the same run in footnote or parentheses, read-out: Pandex IC50 ng/ml (converted)
[3] = value as run, 35B value of the same run in footnote or parentheses
[4] = normalized to positive control (=1.0), * = a calculated average, read-out: Fluorescence Assay IC50 in ng/mL (converted)

Compound | IC50 (HIV-1 protease; [2]) [nM] | IC50 (HIV-1 protease; [4]) [nM] | other results
Cc1c(O)cccc1C(=O)N[C@@H](CSc1ccccc1)[C@H](O)CN1C[C@H]2CCCC[C@H]2C[C@H]1C(=O)NC(C)(C)C (relative stereo) [Example 75, [3S-(3R*, 4aR*, 8aR*, 2′S*, 3′S*)]-2-[2′-Hydroxy-3′-phenylthiomethyl-4′-aza-5′-oxo-5′-(2″-methyl-3″-hydroxyphenyl)pentyl]-decahydroisoquinoline-3-N-t-butyl carboxamide methanesulfonic acid salt] | – | – | IC50 ([1]; Human immunodeficiency virus 1, CCRF-CEM, read-out: Whole cell IC50 nM, CEM cells, values in parentheses are 35B in same assay): 14.5 nM; IC90 ([1]; Human immunodeficiency virus 1, CCRF-CEM, read-out: Whole cell IC90 nM, CEM cells, values in parentheses are 35B in same assay): 56.1 nM
CC(C)(C)NC(=O)[C@@H]1C[C@@H]2CCCC[C@@H]2CN1C[C@@H](O)[C@H](Cc1ccccc1)NC(=O)c1ccsc1 (relative stereo) [Example 87, [3S-(3R*, 4aR*, 8aR*, 2′S*, 3′R*)]-2-[2′-Hydroxy-3′-phenylmethyl-4′-aza-5′-oxo-5′-(thieno-3″-yl)pentyl]-decahydroisoquinoline-3-N-t-butyl carboxamide] | – | – | Pandex IC50 (given as % at concentration) (HIV-1 protease; at 1,000 ng/ml): 25%
CC(C)(C)NC(=O)[C@@H]1C[C@@H]2CCCC[C@@H]2CN1C[C@@H](O)[C@H](Cc1ccccc1)NC(=O)C1CCS(=O)(=O)C1 (relative stereo) [Example 88, [3S-(3R*, 4aR*, 8aR*, 2′S*, 3′R*)]-2-[2′-Hydroxy-3′-phenylmethyl-4′-aza-5′-oxo-5′-(tetrahydrothieno-3″-yl-1″,1″-dioxide)pentyl]-decahydroisoquinoline-3-N-t-butyl carboxamide] | – | – | Pandex % at 20 ng/ml (HIV-1 protease; at 20 ng/ml): 28%
Cc1ccsc1C(=O)N[C@@H](CSc1ccccc1)[C@H](O)CN1C[C@H]2CCCC[C@H]2C[C@H]1C(=O)NC(C)(C)C (relative stereo) [Example 90, [3S-(3R*, 4aR*, 8aR*, 2′S*, 3′S*)]-2-[2′-Hydroxy-3′-phenylthiomethyl-4′-aza-5′-oxo-5′-(3″-methyl-thieno-2″-yl)pentyl]-decahydroisoquinoline-3-N-t-butyl carboxamide] | 48.4 | – | –
CC(C)(C)NC(=O)[C@@H]1C[C@@H]2CCCC[C@@H]2CN1C[C@@H](O)[C@H](CSc1ccccc1)NC(=O)[C@H]1CS(=O)(=O)CN1 (relative stereo) [[3S-(3R*, 4aR*, 8aR*, 2′S*, 3′S*, 4″S)]-2-[2′-Hydroxy-3′-phenylthiomethyl-4′-aza-5′-oxo-5′-(thiazolino-4″-yl-1″,1″-dioxide)pentyl]-decahydroisoquinoline-3-N-t-butyl carboxamide] | – | – | Pandex IC50 (HIV-1 protease; [3]): 244 ng/mL
CC(C)(C)NC(=O)C1CC2CCCCC2CN1CC(O)C(Cc1ccccc1)NC(=O)c1cc(O)cc(O)c1Cl (stereo not drawn) [Example 8, [3S-(3R*,4aR*,8aR*,2′S*,3′R*)]-2-[2′-Hydroxy-3′-phenylmethyl-4′-aza-5′-oxo-5′-(2″-chloro-3″,5″-dihydroxyphenyl)pentyl] decahydroisoquinoline-3-N-t-butylcarboxamide] | 10.1 | 28.7 | –
Cc1c(N)cc(N)cc1C(=O)NC(Cc1ccccc1)C(O)CN1CC2CCCCC2CC1C(=O)NC(C)(C)C (stereo not drawn) [Example 9, [3S-(3R*,4aR*,8aR*,2′S*,3′R*)]-2-[2′-Hydroxy-3′-phenylmethyl-4′-aza-5′-oxo-5′-(2″-methyl-3″,5″-diaminophenyl)pentyl] decahydroisoquinoline-3N-t-butylcarboxamide] | 95.9 | 30.9 | –
COc1cccc(C(=O)NC(Cc2ccccc2)C(O)CN2CC3CCCCC3CC2C(=O)NC(C)(C)C)c1C (stereo not drawn) [Example 13, [3S-(3R*,4aR*,8aR*,2′S*,3′R*)]-2-[2′-Hydroxy-3′-phenylmethyl-4′-aza-5′-oxo-5′-(2″-methyl-3″-methoxyphenyl)pentyl] decahydroisoquinoline-3-N-t-butylcarboxamide] | – | 629 | –
Cc1c(O)cccc1C(=O)NC(Cc1ccccc1)C(O)CN1CC2CCCCC2CC1C(=O)NC(C)(C)C (stereo not drawn) [Example 28, [3S-(3R*,4aR*,8aR*,2′S*,3′R*)]-2-[2′-Hydroxy-3′-phenylmethyl-4′-aza-5′-oxo-5′-(2″-methyl-3″-hydroxyphenyl)pentyl] decahydroisoquinoline-3-N-t-butylcarboxamide monomesylplate salt] | – | – | IC50 ([1]; read-out: Whole cell IC50 nM, CEM cells, tested as the mesylate salt): 35.7 nM; IC90 ([1]; read-out: Whole cell IC90 nM, CEM cells, tested as the mesylate salt): 91.8 nM
CC(C)(C)NC(=O)C1CC2CCCCC2CN1CC(O)C(Cc1ccccc1)NC(=O)c1cccc2c1CCCN2 (stereo not drawn) [Example 37, [3S-(3R*,4aR*,8aR*,2′S*,3′S*)]-2-[2′-Hydroxy-3′-phenylmethyl-4′-aza-5′-oxo-5′-[(1″,2″,3″,4″-tetrahydroquinolin-5″-yl)]pentyl] decahydroisoquinoline-3-N-y-butylcarboxamide] | 58.8 | 49 | –
Cc1ccc(O)c(C)c1C(=O)NC(CSc1ccccc1)C(O)CN1CC2CCCCC2CC1C(=O)NC(C)(C)C (stereo not drawn) [Example 39, [3S-(3R*,4aR*,8aR*,2′S*,3′S*)]-2-[2′-Hydroxy-3′-phenylthiomethyl-4′-aza-5′-oxo-5′-[2″,6″-dimethyl-3″-hydroxyphenyl)pentyl] decahydroisoquinoline-3-N-t-butylcarboxamide] | 13.7 | 9.11 | –
Cc1c(O)cccc1C(=O)N[C@@H](Cc1ccccc1)[C@H](O)Cc1ccccc1C(=O)NC(C)(C)C [Example 40, [2R′-(2R′*,3′S*)]-N-t-Butyl-2-[2′-hydroxy-3′-phenylmethyl-4′-aza-5′-oxo-5′-(2″methyl-3″-hydroxyphenyl)pentyl]benzamide] | – | 21.1 | –
CC(C)(C)NC(=O)c1ccccc1CC(O)C(CSc1ccc2ccccc2c1)NC(=O)c1cccc(Cl)c1Cl (stereo not drawn) [Example 54, [2′R-(2′R*,3′S*)]-N-t-Butyl-2-[2′-hydroxy-3′-naphth-2-ylthiomethyl-4′-aza-5′-oxo-5′-(2″,2″-dichlorophenyl)pentyl] benzamide] | – | 129 | –
CC(C)(C)NC(=O)c1ccccc1C[C@@H](O)[C@H](Cc1ccccc1)NC(=O)c1cccc2c1CCNC2 [Example 60, [2′R-(2′R*,3′S*)]-N-t-Butyl-2-[2′-hydroxy-3′-phenylmethyl-4′-aza-5′-oxo-5′-(1″,2″,3″,4″-tetrahydroisoquinolin-5″-yl)pentyl] benzamide] | – | 801 | –
[2′R-(2′R*,3′S*)]-N-t-Butyl-2-[2′-hydroxy-3′-naphth-2-ylthiomethyl-4′-aza-5′-oxo-5′-(1″-N(methyl)indol-4″-yl)pentyl] benzamide [Example 69] | – | – | Fluorescence Assay IC35 (HIV-1 protease; concentration of the inhibitor not increased above 15 μg/mL): IC35(15000)** ng/mL
[3S-(3R*,4aR*,8aR*,2′S*,3′S*)]-2-[2′-Hydroxy-3′-phenylthiomethyl-4′-aza-5′-oxo-5′-[6″-methyl-(1″,2″,3″,4″-tetrahydroquinolin-5″-yl)]pentyl] decahydroisoquinoline-3-N-t-butylcarboxamide [Example 38] | – | – | Fluorescence Assay IC50 (HIV-1 protease; normalized to positive control (=1.0), * = a calculated average): 15.2 ng/mL; Pandex IC50 ng/ml (HIV-1 protease; [3]): 35^e ng/ml
